Values joined by “and” are separate entries in the source; they are usually repeats but may differ in a detail not shown here. Equal values may be shown once.
Tested on: rodent lifetime carcinogenesis bioassay, tumor incidence TD50
Test: carcinogenic potency in animals, long-term in vivo studies, CPDB compilation (AID 1745844)
Details: in feed
[1] = mouse, strain B6C3F1, females, site: liver, lesion: hepatocellular carcinoma, dosed 91 weeks, study length 91 weeks
[2] = mouse, strain B6C3F1, females, site: liver, lesion: several types, types named in the paper, dosed 91 weeks, study length 91 weeks
[3] = mouse, strain B6C3F1, females, site: liver, lesion: several types, types named in the paper, dosed 100 weeks, study length 100 weeks

Question: With CNc1ccc(N(CCO)CCO)cc1[N+](=O)[O-] as the compound, how does the TD50 (mouse, strain B6C3F1, females, site: any site (literature study), lesion: several types, types named in the paper, dosed 103 weeks, study length 104 weeks) read?
Answer: 373 mg/kg/day

Question: What about the TD50 (mouse, strain B6C3F1, females, site: liver, lesion: hepatocellular adenoma + hepatocellular carcinoma + neoplastic nodule, dosed 103 weeks, study length 104 weeks) of the same compound?
Answer: 179 mg/kg/day

Question: And the TD50 (mouse, strain B6C3F1, females, site: liver, lesion: hepatocellular adenoma + hepatocellular carcinoma, dosed 103 weeks, study length 104 weeks)?
Answer: 179 mg/kg/day

Question: And the TD50 (mouse, strain B6C3F1, females, site: liver, lesion: hepatocellular adenoma, dosed 38 weeks, study length 100 weeks)?
Answer: 165 mg/kg/day

Question: And the TD50 (mouse, strain B6C3F1, females, site: liver, lesion: hepatocellular adenoma, dosed 64 weeks, study length 100 weeks)?
Answer: 969 mg/kg/day

Question: And the TD50 (mouse, strain B6C3F1, females, site: liver, lesion: hepatocellular adenoma, dosed 103 weeks, study length 104 weeks)?
Answer: 697 mg/kg/day

Question: What about the TD50 (mouse, strain B6C3F1, females, site: liver, lesion: hepatocellular carcinoma, dosed 38 weeks, study length 100 weeks) of the same compound?
Answer: 114 mg/kg/day

Question: What about the TD50 (mouse, strain B6C3F1, females, site: liver, lesion: hepatocellular carcinoma, dosed 64 weeks, study length 100 weeks) of the same compound?
Answer: 94 mg/kg/day

Question: What about the TD50 [1] of the same compound?
Answer: 88.9 mg/kg/day and 148 mg/kg/day

Question: What about the carcinogen call [1] of the same compound?
Answer: positive

Question: And the TD50 (mouse, strain B6C3F1, females, site: liver, lesion: hepatocellular carcinoma, dosed 100 weeks, study length 100 weeks)?
Answer: 115 mg/kg/day and 163 mg/kg/day and 87.1 mg/kg/day

Question: What about the TD50 (mouse, strain B6C3F1, females, site: liver, lesion: hepatocellular carcinoma, dosed 103 weeks, study length 104 weeks) of the same compound?
Answer: 208 mg/kg/day

Question: What about the TD50 (mouse, strain B6C3F1, females, site: liver, lesion: several types, types named in the paper, dosed 38 weeks, study length 100 weeks) of the same compound?
Answer: 41.3 mg/kg/day

Question: What about the TD50 (mouse, strain B6C3F1, females, site: liver, lesion: several types, types named in the paper, dosed 64 weeks, study length 100 weeks) of the same compound?
Answer: 81.5 mg/kg/day

Question: What about the TD50 [2] of the same compound?
Answer: 85 mg/kg/day

Question: And the carcinogen call [2]?
Answer: positive

Question: What about the TD50 [3] of the same compound?
Answer: 70.6 mg/kg/day and 51.4 mg/kg/day

Question: And the carcinogen call [3]?
Answer: positive

Question: What about the TD50 (mouse, strain B6C3F1, males, site: any site (literature study), lesion: several types, types named in the paper, dosed 103 weeks, study length 104 weeks) of the same compound?
Answer: 561 mg/kg/day

Question: And the TD50 (mouse, strain B6C3F1, males, site: liver + thyroid gland, lesion: hepatocellular carcinoma + follicular-cell adenoma, dosed 103 weeks, study length 104 weeks)?
Answer: 369 mg/kg/day

Question: And the TD50 (mouse, strain B6C3F1, males, site: liver, lesion: hepatocellular adenoma + hepatocellular carcinoma + neoplastic nodule, dosed 103 weeks, study length 104 weeks)?
Answer: 259 mg/kg/day

Question: What about the TD50 (mouse, strain B6C3F1, males, site: liver, lesion: hepatocellular adenoma + hepatocellular carcinoma, dosed 103 weeks, study length 104 weeks) of the same compound?
Answer: 259 mg/kg/day

Question: And the TD50 (mouse, strain B6C3F1, males, site: liver, lesion: hepatocellular adenoma, dosed 103 weeks, study length 104 weeks)?
Answer: 286 mg/kg/day

Question: What about the TD50 (mouse, strain B6C3F1, males, site: liver, lesion: hepatocellular carcinoma, dosed 103 weeks, study length 104 weeks) of the same compound?
Answer: 389 mg/kg/day

Question: What about the TD50 (mouse, strain B6C3F1, males, site: thyroid gland, lesion: follicular-cell adenoma, dosed 103 weeks, study length 104 weeks) of the same compound?
Answer: 2230 mg/kg/day

Question: What about the TD50 (rat, strain Fischer 344, females, site: liver, lesion: hepatocellular adenoma + hepatocellular carcinoma + neoplastic nodule, dosed 103 weeks, study length 104 weeks) of the same compound?
Answer: 3310 mg/kg/day

Question: What about the TD50 (rat, strain Fischer 344, females, site: lung, lesion: alveolar/bronchiolar adenoma + alveolar/bronchiolar carcinoma, dosed 103 weeks, study length 104 weeks) of the same compound?
Answer: 702 mg/kg/day

Question: What about the TD50 (rat, strain Fischer 344, females, site: lung, lesion: alveolar/bronchiolar carcinoma, dosed 103 weeks, study length 104 weeks) of the same compound?
Answer: 1190 mg/kg/day

Question: What about the TD50 (rat, strain Fischer 344, females, site: uterus, lesion: endometrial stromal polyp, dosed 103 weeks, study length 104 weeks) of the same compound?
Answer: 429 mg/kg/day

Question: And the TD50 (rat, strain Fischer 344, males, site: liver, lesion: hepatocellular adenoma + hepatocellular carcinoma + neoplastic nodule, dosed 103 weeks, study length 104 weeks)?
Answer: 938 mg/kg/day

Question: And the TD50 (rat, strain Fischer 344, males, site: liver, lesion: hepatocellular carcinoma + neoplastic nodule, dosed 103 weeks, study length 104 weeks)?
Answer: 938 mg/kg/day

Question: What about the TD50 (rat, strain Fischer 344, males, site: liver, lesion: neoplastic nodule, dosed 103 weeks, study length 104 weeks) of the same compound?
Answer: 1660 mg/kg/day

From PubChem BioAssay AID1745844 (Carcinogenic Potency Database (CPDB), 2022)
